Results on 1 compound are retold here after paper PMC8296708, “The pan HDAC inhibitor Givinostat improves muscle function and histological parameters in two Duchenne muscular dystrophy murine models expressing different haplotypes of the LTBP4 gene” (Skeletal Muscle, 2021).

One experiment concerns D2.B10 mice. In words: Histopathological evaluation of severity of myodystrophy in D2.B10 mice. Format: in vivo, mouse (D2.B10-Dmd^mdx/J). The note with it: T8 and T16. On the procedure:
In these experiments, the histopathological evaluation of muscle inflammatory infiltrate, adipose tissue deposition, regeneration, and degeneration of the muscular tissue was also performed. The severity of myodystrophy in the different muscles (TA, GAS and DIA) was quantified through a weighted histopathological method that considered some parameters scored by severity and extension of the injury: muscle degeneration/necrosis, regeneration, inflammatory infiltrate, interstitial reaction, and adipose tissue deposition. Each parameter was classified by severity (mild = 1, moderate = 2, and severe = 3) and extension (focal = 1, multifocal = 2, and diffuse = 3). The individual severity score was calculated for each animal and an average score per group was calculated.

Experiment [1] concerns in vivo pulmonary fibrosis model. More on the design: method as in McKinsey TA, unpublished results. Particulars: administered with the diet; ref McKinsey TA, unpublished results; cited from earlier work.

As for `CCN(CC)Cc1ccc2cc(COC(=O)Nc3ccc(C(=O)NO)cc3)ccc2c1` [Givinostat], the “Histological evaluation of inflammatory infiltrate, adipose tissue deposition, regeneration, degeneration” value in the experiment with D2.B10 mice is listed as “not significantly different among the treatment groups”. The “Activity in in vivo pulmonary fibrosis model” value in experiment [1] was “inactive”.
